# Laboratory results published in patent US12605383B2, “Methods of treating cancer” (priority 2020, dated 2026).
# How the values were obtained:
# LLC s.c. tumor = test: Subcutaneous LLC tumor model, tumor size and survival; assay type: in vivo, B6 mice
# AE17 s.c. tumor = test: Subcutaneous AE17 tumor model, tumor size and survival; assay type: in vivo, B6 mice
# LLC cells = test: Cell viability (CCK8) assay, LLC cells; assay type: cell-based, murine; settings: LLC (KRASG12C mutant), 0.016 up to 7500 nM, 48 h
# H2122 cells = test: Cell viability (CCK8) assay, H2122 cells; assay type: cell-based, human; settings: H2122 (KRASG12C mutant), 0.016 up to 7500 nM, 48 h
# AE17 cells = test: Cell viability (CCK8) assay, AE17 cells; assay type: cell-based, murine; settings: AE17 (KRASG12C mutant), 0.016 up to 7500 nM, 48 h
# MC38 s.c. tumor = test: Subcutaneous MC38 tumor model, tumor size and survival; settings: for Median survival: MC38 s.c. tumor, FIG. 2F
# [1] = tested on: LLC tumor microenvironment; test: Flow cytometry of immune cells in LLC tumor tissues; assay type: in vivo, B6 mice; settings: days 6 and 11
# [2] = tested on: LLC tumor-specific T cells; test: IFN-γ ELISpot assay of TILs from LLC tumors; assay type: in vivo, B6 mice; settings: 2.0×10^4 CD90.2+ TILs, day 7, co-cultured 1:1 with irradiated LLC cells
# [3] = tested on: viral replication of vvTD and vvTD-IL36γ; assay type: cell-based, vaccinia virus
# KRASG12C PDX models = settings: Janes et al. 2018; cited from earlier work
compound,measurement,setting,value
C=CC(=O)N1CCN(c2nc(OC[C@@H]3CCCN3C)nc3c2CCN(c2cccc4cccc(C)c24)C3)C[C@@H]1CC#N [MRTX1257],antitumor effect (tumor size),"LLC s.c. tumor; LLC model, MRTX1257 60 mg/kg oral, OVs 2.0e6 pfu/mouse intratumoral, FIG. 3A",significant antitumor effect
same,Median survival,"LLC s.c. tumor; LLC s.c. tumor, MRTX1257 60 mg/kg, FIG. 2D",36 days
same,Median survival,"LLC s.c. tumor; LLC s.c. tumor, MRTX1257 100 mg/kg, FIG. 2D",39.5 days
same,Median survival,"LLC s.c. tumor; LLC s.c. tumor, MRTX1257 200 mg/kg, FIG. 2D",45 days
same,inhibition of tumor growth,"LLC s.c. tumor; LLC tumor model, 60-200 mg/kg, FIG. 2A",good efficacy
same,Median survival,"LLC s.c. tumor; LLC tumor, OV i.t. single dose, MRTX1257 60 mg/kg oral daily for 3 weeks, FIG. 3B",39 days
same,Median survival,"LLC s.c. tumor; LLC tumor, combination with PD-1 blockade, FIG. 6E",39 days
same,Median survival,"AE17 s.c. tumor; AE17 s.c. tumor, MRTX1257 60 mg/kg, FIG. 2E",40.5 days
same,Median survival,"AE17 s.c. tumor; AE17 s.c. tumor, MRTX1257 100 mg/kg, FIG. 2E",40 days
same,Median survival,"AE17 s.c. tumor; AE17 s.c. tumor, MRTX1257 200 mg/kg, FIG. 2E",47 days
same,inhibition of tumor growth,"AE17 s.c. tumor; AE17 tumor model, 60-200 mg/kg, FIG. 2B",good efficacy
same,Median survival,"AE17 s.c. tumor; AE17 tumor, OV i.t. single dose, MRTX1257 60 mg/kg oral daily for 3 weeks, FIG. 3",49.5 days
same,sensitivity of cancer cells to MRTX1257,"MC38 cells; MC38 (non-KRASG12C), 0.016 up to 7500 nM, 48 h",less sensitive
same,drug-mediated cytotoxicity over time,"MC38 cells; MC38, MRTX1257 at 100 nM, 24-72 h, versus LLC and AE17",much more resistant
same,sensitivity of cancer cells to MRTX1257,LLC cells,highly sensitive
same,sensitivity of cancer cells to MRTX1257,H2122 cells,more sensitive than A549 cells
same,sensitivity of cancer cells to MRTX1257,AE17 cells,highly sensitive
same,Median survival,MC38 s.c. tumor; MRTX1257 60 mg/kg,24 days
same,Median survival,MC38 s.c. tumor; MRTX1257 100 mg/kg,24 days
same,Median survival,MC38 s.c. tumor; MRTX1257 200 mg/kg,22 days
same,inhibition of tumor growth,"MC38 s.c. tumor; MC38 tumor model, 60-200 mg/kg, FIG. 2C",no effect
same,CD8+ T cells in tumor tissue,[1],no reduction
same,number of IFN-γ ELISpot spots,[2],~180 spots
same,effect on viral replication and accumulation of vvTD and vvTD-IL36γ,[3],small inhibitory effect
C=CC(=O)N1CCN(c2ncnc3c(F)c(-c4c(O)cccc4F)c(Cl)cc23)CC1 [ARS-1620],in vivo antitumor effect,KRASG12C PDX models,tumor regression
